This is an account of results in patent US4870097A, “Pharmaceutical use of derivatives of tryptophan” (priority 1984, dated 1989).

Experiment [1] relates to analgesic activity of morphine. The experiment can be described thus: Tail Flick Test: increase in the analgesic effect of morphine. The class given is in vivo, rats. To be noted: for percentage variation in the latency of the pain sensation, 10' / percentage variation in the latency of the pain sensation, 20' / percentage variation in the latency of the pain sensation, 30' / percentage variation in the latency of the pain sensation, 45' / percentage variation in the latency of the pain sensation, 60' / percentage variation in the latency of the pain sensation, 90' / M(10'-90') average percentage variation: compound 10 mg/kg i.p. + morphine 2 mg/kg (row Morphine: alone); for percentage variation in the latency of the pain sensation, 10' / percentage variation in the latency of the pain sensation, 20' / percentage variation in the latency of the pain sensation, 30' / percentage variation in the latency of the pain sensation, 45' / percentage variation in the latency of the pain sensation, 60' / percentage variation in the latency of the pain sensation, 90': ± S.E.; for M(10'-90') average percentage variation: mean 10'-90'; for Potency ratio relative to morphine alone: rat, in vivo. As for the experimental part: Increase in the analgesic effect of analgesic-narcotic drugs in rats in the Tail Flick Test
The method is that described by Harris et al. (J. Pharmacol. Exp. Ther. 143 (1964) 141-148).
Male rats are used which have a weight of about 150-200 g and which have not been fasting. A point is chosen on the tail and this is irradiated by a heat source (75° C.) and the time (in seconds) for which the animal remains without moving its tail is measured.
A maximum period of time under the heat source of 8 seconds is chosen after which the animal is, in any case, removed in order to avoid tissue damage. The measurement is effected before (controls) and after treatment with the drugs.
. The percentage variation is calculated for each individual animal by the following formula: [formula] The measurements are carried out 10, 20, 30, 45, 60 and 90 minutes after treatment with the analgesics.
The results obtained are given in Table 1 which records the groups treated and the doses administered, the
average percentage variations (calculated on groups of five animals) in […]
For orientation: Hot-plate and tail-flick tests time the reaction to a heat stimulus.

In experiment [2] the test system is guinea pig gall bladder contracted with CCK-8. The experiment can be described thus: Anti-CCK activity on guinea pig gall bladders in vitro. The class given is biochemical. The conditions noted are these: CCK-8 10 ng/ml, concentration antagonising 50% of contracting effect. The method, then: A longitudinal strip of guinea pig gall bladder is placed in a bath of Krebs for isolated organs at a temperature of 32° C. and oxygenated continuously with an oxygen-CO2 mixture (95-5 V/V).
The […] contractions are detected by means of a force transducer and recorded.
The gall bladder is contracted with the use of a CCK-8 solution at a concentration of 10 ng/ml; the antagonistic activity of the compounds of the invention towards the contracting effect of the CCK is determined with the use of different concentrations, the ED50 value, that is the concentration of the compound in mcg/ml capable of antagonising 50% of the contracting effect of the CCK, being determined.
The results obtained are set out in the following table which gives the compounds tested and the ED50 values which are calculated by the method of regression on a test of at least three experiments for each compound studied.

On to `O=C(N[C@@H](Cc1c[nH]c2ccccc12)C(=O)O)c1ccc(I)cc1` [Compound 15], for which, in experiment [1], the “percentage variation in the latency of the pain sensation, 10'” value (shortened to “percentage variation in the latency … 10'”) is recorded as 77.7 ± 13.8%; the “percentage variation in the latency of the pain sensation, 20'” value (“percentage variation in the latency … 20'” for short) amounted to 81.7 ± 12.3%; the “percentage variation in the latency of the pain sensation, 30'” value (“percentage variation in the latency … 30'” below) is 91.0 ± 9.0%; the “percentage variation in the latency of the pain sensation, 45'” value (shortened to “percentage variation in the latency … 45'”) is 89.0 ± 11.0%. Also, in experiment [1], the “percentage variation in the latency of the pain sensation, 60'” value (“percentage variation in the latency … 60'” for short) is recorded as 70.4 ± 17.2%; the “percentage variation in the latency of the pain sensation, 90'” value (“percentage variation in the latency … 90'” below) is recorded as 60.3 ± 12.6%; the “M(10'-90') average percentage variation” value was found to be 78.3%; the “Potency ratio relative to morphine alone” value is given as 2.63. In addition, the “Anti CCK-8 activity, ED50” value in experiment [2] is “IN (inactive up to 400 mcg/ml)”.

On to `O=C(N[C@@H](Cc1c[nH]c2ccccc12)C(=O)O)c1ccc(F)cc1` [Compound 14], for which, in experiment [1], the “percentage variation in the latency … 10'” value was found to be 47.9 ± 21.0%; the “percentage variation in the latency … 20'” value was found to be 90.2 ± 9.8%; the “percentage variation in the latency … 30'” value amounted to 80.0 ± 12.5%; the “percentage variation in the latency … 45'” value was determined as 67.7 ± 19.8%. In experiment [1], the “percentage variation in the latency … 60'” value is given as 70.5 ± 18.1%; the “percentage variation in the latency … 90'” value was determined as 61.5 ± 11.8%; the “M(10'-90') average percentage variation” value stood at 69.6%; the “Potency ratio relative to morphine alone” value amounted to 2.33. In addition, the “Anti CCK-8 activity, ED50” value in experiment [2] was found to be 233.2 µg/mL.

Take `CCCCCc1ccc(C(=O)N[C@@H](Cc2c[nH]c3ccccc23)C(=O)O)cc1` [Compound 25]: in experiment [1], the “percentage variation in the latency … 10'” value came to 32.9 ± 17.3%; the “percentage variation in the latency … 20'” value is recorded as 63.7 ± 19.1%; the “percentage variation in the latency … 30'” value amounted to 97.5 ± 2.5%; the “percentage variation in the latency … 45'” value is 100.0 ± 0.0%. Further, in experiment [1], the “percentage variation in the latency … 60'” value was found to be 100.0 ± 0.0%; the “percentage variation in the latency … 90'” value came out at 82.9 ± 17.1%; the “M(10'-90') average percentage variation” value turned out to be 79.5%; the “Potency ratio relative to morphine alone” value was found to be 2.67. The “Anti CCK-8 activity, ED50” value in experiment [2] worked out at 103.8 µg/mL.

On to `O=C(N[C@@H](Cc1c[nH]c2ccccc12)C(=O)O)OCc1ccc(Cl)c(Cl)c1` [Compound 6], for which, in experiment [1], the “percentage variation in the latency … 10'” value was 68.6 ± 20.4%; the “percentage variation in the latency … 20'” value worked out at 78.0 ± 17.9%; the “percentage variation in the latency … 30'” value amounted to 80.4 ± 19.6%; the “percentage variation in the latency … 45'” value is given as 84.5 ± 11.4%. Further, in experiment [1], the “percentage variation in the latency … 60'” value stood at 76.3 ± 13.8%; the “percentage variation in the latency … 90'” value turned out to be 71.9 ± 15.2%; the “M(10'-90') average percentage variation” value is reported as 78.6%; the “Potency ratio relative to morphine alone” value is recorded as 2.57. The “Anti CCK-8 activity, ED50” value in experiment [2] stood at 16.1 µg/mL.

`N#Cc1ccc(COC(=O)N[C@@H](Cc2c[nH]c3ccccc23)C(=O)O)cc1` [Compound 11]: in experiment [1], the “percentage variation in the latency … 10'” value is 53.4 ± 13.5%; the “percentage variation in the latency … 20'” value amounted to 80.0 ± 13.0%; the “percentage variation in the latency … 30'” value is given as 90.4 ± 9.6%; the “percentage variation in the latency … 45'” value amounted to 84.9 ± 15.1%. Further, in experiment [1], the “percentage variation in the latency … 60'” value was determined as 55.6 ± 18.3%; the “percentage variation in the latency … 90'” value came out at 50.9 ± 20.7%; the “M(10'-90') average percentage variation” value was 72.9%; the “Potency ratio relative to morphine alone” value amounted to 2.45. In experiment [2], the “Anti CCK-8 activity, ED50” value was 34.3 µg/mL.
